Experimental data reported in patent publication US6506737B1, “Antimicrobial phosphonium and sulfonium polyhalide compositions” (Ecolab, Inc., priority 2000, dated 2003).

What was measured:
S. aureus = test: Biocidal efficacy, log reduction of S. aureus (Table 2); type: cell-based, Staphylococcus aureus; conditions: total active 0.12-0.89 mmole/liter as listed per composition; for Log Reduction (S. aureus) (30 seconds): 30 seconds exposure; for Log Reduction (S. aureus) (60 seconds): 60 seconds exposure
[1] = tested on: Staphylococcus aureus (ATCC 6538); test: Antimicrobial efficacy, log reduction at 12 grams per gallon in sterile deionized water (Table 3); type: cell-based; conditions: ambient temperature
Description: (§1) A 4% solution of trimethyl sulfonium triiodide and a solution of 20% hexadecyl tributyl phosphonium diiodochloride were tested at a concentration of 12 grams per gallon in sterile deionized water against Staphylococcus aureus (ATCC 6538).

[2] = pH of the test solution (Table 3); type: physicochemical; conditions: test substance at 12 grams per gallon in sterile deionized water
Description: as §1

| SMILES | Log Reduction (S. aureus) (30 seconds) (S. aureus) | Log Reduction (S. aureus) (60 seconds) (S. aureus) | Log Reduction ([1]; exposure time 15 seconds) | Log Reduction ([1]; exposure time 30 seconds) | Log Reduction ([1]; exposure time 5 minutes, listed as 20% hexadecyl tributyl phosphonium diiodochloride) | pH [2] | Log Reduction ([1]; exposure time 30 seconds, listed as 4% trimethyl sulfonium triiodide) | Log Reduction ([1]; exposure time 5 minutes) |
| --- | --- | --- | --- | --- | --- | --- | --- | --- |
| C[N+](C)(C)CCO.Cl[I-]I [choline chloro diiodide] | >6.9 | >6.9 |  |  |  |  |  |  |
| CCCC[N+](CCCC)(CCCC)CCCC.Cl[I-]I [tetrabutyl ammonium chloro diiodide] | >6.4 | >6.4 |  |  |  |  |  |  |
| C[N+](C)(C)C.Cl[I-]I [tetramethyl ammonium chloro diiodide] | 4.0 | >6.8 |  |  |  |  |  |  |
| CCCCCCCCCCCCCCCC[P+](CCCC)(CCCC)CCCC.Cl[I-]I [tributyl hexadecyl phosphonium chloro diiodide] | 5.0 | 6.2 | 3.74 | 4.98 | 6.21 | 4.61 |  |  |
| C[S+](C)C.I[I-]I [trimethyl sulfonium triiodide] | >7.0 | >7.0 | 4.67 |  |  | 2.52 | >6.95 | >6.95 |
